Experimental findings from patent US11998543B2, “Pharmaceutical composition comprising aldehyde inhibitor and anticancer agent for treatment of brain cancer” (Industry-Academic Cooperation Foundation, Yonsei University, priority 2018, dated 2024) are described below.

One series concerns U87 cells. The series is described as follows: WST cytotoxicity / cell viability assay (EZ-Cytox), 72 h drug treatment. The following applies: for Measured value (cell viability) / Value expressed relative to administration alone: U87; for Measured value (cell viability): G and P 10 μM each; for Measured value (cell viability) / Cancer cell killing (cytotoxicity), comparison in words: 72 h; for Value expressed relative to administration alone: viability with anticancer drug alone set to 1; for Cancer cell killing (cytotoxicity), comparison in words: spherical U87 cells, compared with single agents or other combinations, PTX and 5-FU at high concentration (H) vs TMZ alone. The series is classed as cell-based. How it is done:
(§1) Cultured tumorsphere-forming glioblastoma cells (GBM TS) were seeded into 96-well plates at a density of 10^4 cells/well and treated for 72 hours with a drug-containing medium prepared in a Preparation Example (a control group was treated with general culture medium), and then cytotoxicity to the cancer cells was measured by WST assay using EZ-Cytox reagent (DoGenBio, Seoul, Korea) according to the manufacturer's protocol.
(§2) For the present disclosure, two types of tumorsphere (TS)-forming glioblastoma (GBM) cells were used. TS13-64 cells are primary tumor cells derived from a GBM patient, and established from a new GBM tissue sample under the approval of the Institutional Review Board of the Yonsei University College of Medicine (approval Nos: 4-2012-0212 and 4-2014-0649). As U87 cells, spherical cells prepared by culturing the U87MG cell line under TS culture conditions were used. For TS culture, cells were treated with DMEM/F-12 medium containing 2 wt % 1×B27, 0.02 wt % bFGF (20 ng/ml), 0.02 wt % EGF (20 ng/ml) and 50 U/ml penicillin/[…] streptomycin (100×, Gibco, Invitrogen Korea, Seoul, South Korea), and all in vitro experiments were performed under TS culture conditions.
(§3) For use in in vitro experiments, gossypol (G) and phenformin (P, Sigma-Aldrich) were dissolved in DMSO and H2O, respectively, at a concentration of 10 μM. The anticancer drug temozolomide (TMZ, Sigma-Aldrich) was dissolved in DMSO and used at a concentration of 250 μM. As controls for the anticancer drug TMZ for co-administration with gossypol and phenformin, other anticancer drugs, paclitaxel (PTX) and fluorouracil (5-FU), were used. […] That is, in the same manner as TMZ, paclitaxel was prepared and used at a low concentration of 2 nM and a high concentration of 5 nM, and fluorouracil was prepared and used at a low concentration of 50 μM and a high concentration of 100 μM (low concentration is indicated by L, and high concentration is indicated by H).
(§4) Cultured tumorsphere-forming glioblastoma cells (GBM TS) were seeded into 96-well plates at a density of 10^4 cells/well and treated for 72 hours with a drug-containing medium prepared in the Preparation Example (a control group was treated with general culture medium), and then cytotoxicity to the cancer cells was measured by WST assay using EZ-Cytox reagent (DoGenBio, Seoul, Korea) according to the manufacturer's protocol.
(§5) Evaluation of cytotoxicity to cancer cells and the sphere-forming ability of cells was performed in the same manner as in Example 1.
(§6) In order to more easily compare these effects, the cell viability value obtained upon administration of each anticancer drug alone was set to 1, and the cell viability value obtained upon co-administration was expressed relative to the cell viability value obtained upon administration of each anticancer drug alone.

For another series, the system named is TS13-64 cells. The description is as above. The series is classed as cell-based, human. The settings on record: for Measured value (cell viability) / Value expressed relative to administration alone: TS13-64; for Measured value (cell viability): G and P 10 μM each; for Measured value (cell viability) / Cancer cell killing (cytotoxicity), comparison in words: 72 h; for Value expressed relative to administration alone: viability with anticancer drug alone set to 1; for Cancer cell killing (cytotoxicity), comparison in words: TS13-64 cells, compared with single agents or other combinations, PTX and 5-FU at high concentration (H) vs TMZ alone. The procedure: as §1, §2, §3, §4, §5, §6

Setting [1] is: high concentration (H): PTX 5 nM, 5-FU 100 μM.
Where [2] appears, read: low concentration (L): PTX 2 nM, 5-FU 50 μM.

Molecules are shown by their SMILES.

On to `Cn1nnc2c(C(N)=O)ncn2c1=O` [TMZ, temozolomide], for which the “Measured value (cell viability)” value in the series on U87 cells (TMZ 250 μM) came out at 0.879; with TS13-64 cells (TMZ 250 μM) it was 0.781. The “Value expressed relative to administration alone” value in the series on U87 cells (TMZ 250 μM) and in the series with TS13-64 cells (TMZ 250 μM) was 1.000 in each case.
As to `O=c1[nH]cc(F)c(=O)[nH]1` [5FU, fluorouracil], the “Measured value (cell viability)” value in the series on U87 cells (setting [1]) is on record as 0.804; in the series on U87 cells (setting [2]), 0.980; in the series with TS13-64 cells (setting [1]), 0.756; with TS13-64 cells (setting [2]), 0.826. Moreover, the “Value expressed relative to administration alone” value in the series with U87 cells (setting [1]), in the series with U87 cells (setting [2]), with TS13-64 cells (setting [1]) and in the series with TS13-64 cells (setting [2]) was 1.000 throughout. The “Cancer cell killing (cytotoxicity), comparison in words” value in the series with U87 cells and in the series on TS13-64 cells was “higher” each time.
As to `CC(=O)O[C@H]1C(=O)[C@@]2(C)[C@H]([C@H](OC(=O)c3ccccc3)[C@]3(O)C[C@H](OC(=O)[C@H](O)[C@@H](NC(=O)c4ccccc4)c4ccccc4)C(C)=C1C3(C)C)[C@]1(OC(C)=O)CO[C@@H]1C[C@@H]2O` [PTX, paclitaxel], the “Measured value (cell viability)” value in the series with U87 cells (setting [1]) is reported as 0.720; with U87 cells (setting [2]), 0.947; in the series with TS13-64 cells (setting [1]), 0.675; in the series with TS13-64 cells (setting [2]) it was 0.764. Besides, the “Value expressed relative to administration alone” value in the series on U87 cells (setting [1]), in the series on U87 cells (setting [2]), with TS13-64 cells (setting [1]) and in the series with TS13-64 cells (setting [2]) was 1.000 throughout. Further, the “Cancer cell killing (cytotoxicity), comparison in words” value in the series on U87 cells and with TS13-64 cells was “higher” each time.
